Measurements taken from ChEMBL document CHEMBL1123050, “New cysteamine (2-chloroethyl)nitrosoureas. Synthesis and preliminary antitumor results” (1985).

Assays:
L1210 [1] = assay: Number of survivors/ number of animals tested at the dose of 120 mg/Kg, iv; 0/6; format: functional, Mus musculus
Mus musculus [2] = assay: Antitumor activity was evaluated against L1210 leukemia, injected intravenously at a dose 20 umol/kg; format: functional
Mus musculus [3] = assay: Antitumor activity was evaluated against L1210 leukemia, injected intravenously at a dose 120 umol/kg; format: functional
L1210 [4] = assay: Number of survivors/ number of animals tested at the dose of 60 mg/Kg, iv; 6/6; format: functional, Mus musculus
L1210 [5] = assay: (§1) Number of survivors/ number of animals tested at the dose of 20 mg/Kg, iv; 0/6; format: functional, Mus musculus
L1210 [6] = assay: (§2) Number of survivors/ number of animals tested at the dose of 40 mg/Kg, iv; 6/6; format: functional, Mus musculus
Mus musculus [7] = assay: Antitumor activity was evaluated against L1210 leukemia, injected intravenously at a dose 80 umol/kg; format: functional
L1210 [8] = assay: Number of survivors/ number of animals tested at the dose of 80 mg/Kg, iv; 1/6; format: functional, Mus musculus
Mus musculus [9] = assay: Number of survivors/ number of animals tested at the dose of 80 mg/Kg, iv; 0/6; format: functional
Mus musculus [10] = assay: Antitumor activity was evaluated against L1210 leukemia, injected intravenously at a dose umol/kg, survivors/6; format: functional
Mus musculus [11] = assay: Antitumor activity was evaluated against L1210 leukemia, injected intravenously at a dose umol/kg; format: functional
Mus musculus [12] = assay: Antitumor activity was evaluated against L1210 leukemia, injected intravenously at a dose umol/kg; infinity-50-100%survivals; format: functional, organism-based
Mus musculus [13] = assay: Number of survivors/ number of animals tested at the dose of 60 mg/Kg, iv; 4/6; format: functional
Mus musculus [14] = assay: as §2; format: functional
Mus musculus [15] = assay: as §1; format: functional
L1210 [16] = assay: Number of survivors/ number of animals tested at the dose of 125 mg/Kg; 0/6; format: functional, Mus musculus
L1210 [17] = assay: Number of survivors/ number of animals tested at the dose of 95 mg/Kg; 3/6; format: functional, Mus musculus
L1210 [18] = assay: Number of survivors/ number of animals tested at the dose of 50 mg/Kg; 6/6; format: functional, Mus musculus
L1210 [19] = assay: Antitumor activity was evaluated against L1210 leukemia, injected intraperitoneally at a dose 75 umol/kg; infinity-50-100%survivals; format: functional, cell-based; settings: Mus musculus
L1210 [20] = assay: Number of survivors/ number of animals tested at the dose of 25 mg/Kg; 0/6; format: functional, Mus musculus
L1210 [21] = assay: Antitumor activity was evaluated against L1210 leukemia, injected intraperitoneally at a dose 120 umol/kg; format: functional, Mus musculus
L1210 [22] = assay: Antitumor activity was evaluated against L1210 leukemia, injected intraperitoneally at a dose 25 umol/kg; format: functional, Mus musculus
L1210 [23] = assay: Antitumor activity was evaluated against L1210 leukemia, injected intraperitoneally at a dose 95 umol/kg; infinity-50-100%survivals; format: functional, cell-based; settings: Mus musculus
L1210 [24] = assay: Number of survivors/ number of animals tested at the dose of 75 mg/Kg; 6/6; format: functional, Mus musculus
L1210 [25] = assay: Antitumor activity was evaluated against L1210 leukemia, injected intraperitoneally at a dose 50 umol/kg; infinity-50-100%survivals; format: functional, cell-based; settings: Mus musculus
Mus musculus [26] = assay: Number of survivors/ number of animals tested at the dose of 40 mg/Kg, ip; 0/6; format: functional
Mus musculus [27] = assay: Number of survivors/ number of animals tested at the dose of 80 mg/Kg, ip; 5/6; format: functional
Mus musculus [28] = assay: Number of survivors/ number of animals tested at the dose of 40 mg/Kg, iv; 0/6; format: functional
Mus musculus [29] = assay: Number of survivors/ number of animals tested at the dose of 235 mg/Kg, iv; 5/6; format: functional
Mus musculus [30] = assay: Number of survivors/ number of animals tested at the dose of 235 mg/Kg, ip; 0/6; format: functional
Mus musculus [31] = assay: Antitumor activity was evaluated against L1210 leukemia, injected intravenously at a dose 235 umol/kg; format: functional
Mus musculus [32] = assay: Antitumor activity was evaluated against L1210 leukemia, injected intravenously at a dose 40 umol/kg; format: functional
Mus musculus [33] = assay: Number of survivors/ number of animals tested at the dose of 195 mg/Kg, iv; 5/6; format: functional
Mus musculus [34] = assay: Antitumor activity was evaluated against L1210 leukemia, injected intraperitoneally at a dose 40 umol/kg; format: functional
Mus musculus [35] = assay: Number of survivors/ number of animals tested at the dose of 115 mg/Kg, ip; 6/6; format: functional
Mus musculus [36] = assay: Antitumor activity was evaluated against L1210 leukemia, injected intraperitoneally at a dose 295 umol/kg; format: functional
Mus musculus [37] = assay: Number of survivors/ number of animals tested at the dose of 195 mg/Kg, ip; 5/6; format: functional
Mus musculus [38] = assay: Number of survivors/ number of animals tested at the dose of 155 mg/Kg, ip; 6/6; format: functional
Mus musculus [39] = assay: Number of survivors/ number of animals tested at the dose of 115 mg/Kg, iv; 6/6; format: functional
Mus musculus [40] = assay: Number of survivors/ number of animals tested at the dose of 155 mg/Kg, iv; 6/6; format: functional

CS(=O)(=O)CCNC(=O)N(CCCl)N=O
Survivors (L1210 [1]): 0 | T/C x100 (Mus musculus [2]): 200 | T/C x100 (Mus musculus [3]): 190 | Survivors (L1210 [4]): 6 | Survivors (L1210 [5]): 0 | Survivors (L1210 [6]): 6 | T/C x100 (Mus musculus [7]): 300 | Survivors (L1210 [8]): 1

C[S+]([O-])CCNC(=O)N(CCCl)N=O (configuration not stated)
Survivors (Mus musculus [9]): 0 | T/C x100 (Mus musculus [10]): 190 | T/C x100 (Mus musculus [11]): 190 | T/C x100 (Mus musculus [12]): infinity-50-100%survivals | Survivors (Mus musculus [13]): 4 | Survivors (Mus musculus [14]): 6 | Survivors (Mus musculus [15]): 0

O=NN(CCCl)C(=O)NCCSSCCN(N=O)C(=O)NCCCl.O=NN(CCSSCCN(N=O)C(=O)NCCCl)C(=O)NCCCl
Survivors (L1210 [16]): 0 | Survivors (L1210 [17]): 3 | Survivors (L1210 [18]): 6 | T/C x100 (L1210 [19]): infinity-50-100%survivals | Survivors (L1210 [20]): 0 | T/C x100 (L1210 [21]): 125 | T/C x100 (L1210 [22]): 250 | T/C x100 (L1210 [23]): infinity-50-100%survivals | Survivors (L1210 [24]): 6 | T/C x100 (L1210 [25]): infinity-50-100%survivals

CS(=O)(=O)CCN(N=O)C(=O)NCCCl.CS(=O)(=O)CCNC(=O)N(CCCl)N=O
Survivors (Mus musculus [26]): 0 | Survivors (Mus musculus [27]): 5 | Survivors (Mus musculus [28]): 0 | Survivors (Mus musculus [29]): 5 | Survivors (Mus musculus [30]): 0 | T/C x100 (Mus musculus [31]): 290 | Survivors (Mus musculus [9]): 0 | T/C x100 (Mus musculus [32]): 190 | Survivors (Mus musculus [33]): 5 | T/C x100 (Mus musculus [34]): 190 | Survivors (Mus musculus [35]): 6 | T/C x100 (Mus musculus [36]): 410 | Survivors (Mus musculus [37]): 5 | Survivors (Mus musculus [38]): 6 | Survivors (Mus musculus [39]): 6 | T/C x100 (Mus musculus [7]): 230 | Survivors (Mus musculus [40]): 6
